According to patent publication EP0324875A1 (priority 1988, dated 1989):
Where two headings read alike, the source gives them in different places.

How the values were obtained:
[1] = system: Virus FPV (Stamm Weibridge); format: cell-based, Grippe-Virus A/H7N7/; settings: for inf. Titer in PBE/ml / XA-Titer: MOI = 0,5
Virus FPV = assay: organism not typed; format: cell-based, Grippe-Virus A/H7N7/; settings: 72 h; for Inhibitionsprozent (Verminderung der Plaquebildung): Zellen EHF
Grippe-Virus B/Lii = assay: One-cycle test, virus yield in calf kidney cell culture; format: cell-based; settings: MOI = 1
Description: Bei den Mehrcyclen- und Eincyclustests werden einschichtige Zellkulturen einer embryonalen Kalbsniere verwendet, welche mit Grippe-Viren A/H3N2/Texas/77 und B/Lii/MOI = 0.01-0.5 und 1-10 entsprechend infiziert werden. Die Ausbeute an infektiösem und hämaglutinierendem Virus wird in der 24sten Stunde (bei einem Mehrcyclentest) und entsprechend in der zwölften bis fünfzehnten Stunde (bei einem Eincyclustest) ausgerechnet. Der infektiöse Titer wird EID₅₀/ml bestimmt. Dieselben Versuche werden auch mit Virus FPV (Stamm Weibridge) in Zellen EHF(bei Ausrechnung des infektiösen Virus Plaque-bildenden Einheiten und des hämaglutinierenden Virus) durchgeführt. Die Wirksamkeit der Verbindungen wird im Bezug auf die Kontrolle (ohne Inhibitoren) ausgerechnet.

[2] = DD-13 18,7 mg/kg
[3] = read-out: Inhibitionsprozent (Verminderung der Plaquebildung)

## CC(N)C12CC3CC(CC(C3)C1)C2 (stereo not drawn) [Rimantadin, reference compound]
[1]; 5 mkg/ml Rimantadin alone
  Verminderung der Ausbeute des hämaglutivierenden Virus (fold): 64
[1]; Rim. 1 mkg/ml alone, control 1.7x10^7
  inf. Titer in PBE/ml: 4,2x10^4 PBE/ml
[1]; Rim. 1 mkg/ml alone, control 2048
  XA-Titer: 32
[1]; Rim. 5 mkg/ml alone, control 1.7x10^7
  inf. Titer in PBE/ml: 4,4x10^4 PBE/ml
[1]; Rim. 5 mkg/ml alone, control 2048
  XA-Titer: 32
Virus FPV; [3]
  inhibition at 0.0001 µM: 3.52%
  inhibition at 0.001 µM: 18.4%
  inhibition at 0.01 µM: 48%
Virus FPV; Rimantadin 10^-9 M/1 alone
  Inhibitionsprozent (Verminderung der Plaquebildung): 18,37 ± 14,19%
Grippe-Virus B/Lii; Rim. 5 mkg/ml alone, control 6,3
  inf. Titer in log. EID50/ml: 6,0 log. EID50/ml
Grippe-Virus B/Lii; Rim. 5 mkg/ml alone, control 8
  XA-Titer: 4
Grippe-Virus B/Lii; Rim. 25 mkg/ml alone, control 6,3
  inf. Titer in log. EID50/ml: 4,7 log. EID50/ml
Grippe-Virus B/Lii; Rim. 25 mkg/ml alone, control 8
  XA-Titer: 4

## O=C1NCCCN1CN1CCOCC1 [DD-13]
[1]; 60 mkg/ml DD-13 alone
  Verminderung der Ausbeute des hämaglutivierenden Virus (fold): viermalige
[1]; DD-13 15 mkg/ml alone, control without inhibitors 1.7x10^7
  inf. Titer in PBE/ml: 5x10^6 PBE/ml
[1]; DD-13 15 mkg/ml alone, control without inhibitors 2048
  XA-Titer: 1024
[1]; DD-13 30 mkg/ml alone, control 1.7x10^7
  inf. Titer in PBE/ml: 6,9x10^6 PBE/ml
[1]; DD-13 30 mkg/ml alone, control 2048
  XA-Titer: 512
[1]; DD-13 60 mkg/ml alone, control 1.7x10^7
  inf. Titer in PBE/ml: 3,9x10^6 PBE/ml
[1]; DD-13 60 mkg/ml alone, control 2048
  XA-Titer: 256
Virus FPV; [3]
  inhibition at 10 µM: 2.3%
  inhibition at 30 µM: 15.2%
  inhibition at 100 µM: 34.3%
  inhibition at 300 µM: 85%
  inhibition at 1000 µM: 99.2%
Virus FPV; DD-13 3x10^-4 M/1 alone
  Inhibitionsprozent (Verminderung der Plaquebildung): 85,00%
Grippe-Virus B/Lii; DD-13 12,5 (unit not given) alone, control without inhibitors 6,3
  inf. Titer in log. EID50/ml: 4,0 log. EID50/ml
Grippe-Virus B/Lii; DD-13 12,5 (unit not given) alone, control without inhibitors 8
  XA-Titer: 8
Grippe-Virus B/Lii; DD-13 25 (unit not given) alone, control 6,3
  inf. Titer in log. EID50/ml: 2,5 log. EID50/ml
Grippe-Virus B/Lii; DD-13 25 (unit not given) alone, control 8
  XA-Titer: 4
Grippe-Virus B/Lii; DD-13 50 (unit not given) alone, control 6,3
  inf. Titer in log. EID50/ml: 2,0 log. EID50/ml
Grippe-Virus B/Lii; DD-13 50 (unit not given) alone, control 8
  XA-Titer: 4
[2]
  dose as fraction of LD50: 1/213
